Several values for one entry are separate records, joined by “and”; a condition that tells them apart may be missing. Identical values can stand only once. Like-named read-outs stand apart in the source and are kept apart here.
Tests used:
[1] = Population pharmacokinetic (popPK) model of plasma concentrations in adult patients (OpTAT study)
Source text: Data were collected during the OpTAT study. […] Blood samples were collected from patients during their regular medical visits, with a maximum of eight samples taken per patient.
The digital monitor allowed us to provide accurate information on treatment implementation (i.e., the extent to which the patient’s dosing history is in line with the prescription—the correct dosing regimen, at the correct time and in the right condition) and temporary or long-term discontinuation of treatment (i.e., when the patient stops taking the treatment prematurely). For the remaining patients, dosing history was reconstructed based on information from the medical consultation notes, assuming steady-state condition if no information was available. Patient demographic and clinical data were extracted from medical records. For all clinical and laboratory data (e.g., body weight, hepatic or renal function), the closest measurement to the blood sample was used. If no measurement was taken within 10 days before or after the sample, then it was considered a missing value. Creatinine clearance (CrCL) was estimated using the Cockcroft–Gault formula [43]. Fat-free mass (FFM) was calculated using the following formula [44]:(1) FFMkg=BW×1−BFPbmi/100 with BW denoting bodyweight in kg and BFPbmi denoting body fat percentage, calculated using the following formula:(2) BFPbmi%=1.20×BMI+0.23×AGE−10.8×SEX−5.4 with BMI representing body mass index, in kg/m^2. SEX = 0 if women and 1 if men and AGE is provided in years.
The development of the population pharmacokinetic (popPK) model was performed using nonlinear mixed-effect modelling (Nonmem, ICON, Dublin, Ireland, version 7.4.3) and Pearl speaks Nonmem (PsN, version 4.8.0). Pirana (Certara, Radnor, PA, USA, version 2.9.6) was used for the management of runs, R (version 4.0.2), for graphical and statistical analyses.
A classical stepwise procedure was used to build the model. […] Inter-individual variability (IIV) was successively incorporated into each PK parameter. Different error models, including additive, proportional, and combined error models, were also assessed. Different values retrieved from the literature of absorption rate constants (ka), ranging from 0.4 to 2 h^−1, were evaluated due to insufficient data being collected during the absorption phase. For each patient, the time required to reach maximum concentration (Tmax) was estimated.
Biologically relevant covariates were introduced into the model through a forward/backward insertion/deletion method. Covariates tested were sex, body weight, body mass index (BMI), body surface area (BSA), age, FFM, CrCL, urea, total bilirubin, alkaline phosphatase (PAL), aspartate aminotransferase (ASAT), alanine aminotransferase (ALAT), concomitant administration of dabrafenib, and food intake. Initially, a univariate analysis was conducted, during which covariates were added one by one to the model. Continuous covariates were centred and normalized to the population median and were added to the model using either linear or allometric relationships, while categorical covariates followed a linear relationship. Missing values were assigned the population median. Subsequently, a multivariate analysis was performed of the identified significant covariates to develop the comprehensive model. Finally, a reductive analysis was performed to retain only the most significant covariates.
The assumption of steady state for patients without adherence information may have biased the analysis by interpreting low levels as high clearances resulting from missed doses rather than from a covariate effect. To verify this, a sensitivity analysis was conducted of the 11 patients with full adherence information. We assumed that if the significant covariate–parameter relationship persisted, its influence on the pharmacokinetic parameter would be confirmed, whereas, if not, this influence might have been confounded by other factors, including suboptimal adherence.

[2] = set-up: method as in PMID 32283865; conditions: fixed to a literature value; cited from earlier work
[3] = cited from earlier work
[4] = cited from earlier work; remark: listed apart in the source
[5] = test system: cytochrome P (CYP) enzymes; set-up: method as in earlier work; conditions: cited from earlier work
[6] = cited from earlier work; remark: listed apart in the source
[7] = Figure 1; cited from earlier work
[8] = bootstrap performed on 2000 runs

SMILES: CC(=O)Nc1cccc(-n2c(=O)n(C3CC3)c(=O)c3c(Nc4ccc(I)cc4F)n(C)c(=O)c(C)c32)c1 [trametinib]
- decrease in CL ([1]; 80-year-old versus 30-year-old patient): 40%
- increase in CL ([1]; FFM of 68 kg compared with population median of 46.35 kg): 66%
- IIV (CV%) on CL, base model ([1]; base two-compartment model): 45%
- central volume (V2), base model ([1]; base two-compartment model): 102 L
- intercompartmental clearance (Q), base model ([1]; base two-compartment model): 35.1 L/h
- peripheral volume (V3), base model ([1]; base two-compartment model): 338 L
- IIVCL, Bootstrap Median (95% PI) [1, 8]: 22 (13, 28) %
- Q, Bootstrap Median (95% PI) [1, 8]: 28.83 (12.69, 60.68) L·h^−1
- V2, Bootstrap Median (95% PI) [1, 8]: 101.84 (65.42, 143.40) L
- V3, Bootstrap Median (95% PI) [1, 8]: 286.48 (104.63, 385.40) L
- θAGE, Bootstrap Median (95% PI) [1, 8]: −0.66 (−1.25 to −0.20)
- θCL, Bootstrap Median (95% PI) [1, 8]: 3.98 (3.52, 4.45) L·h^−1
- θFFM, Bootstrap Median (95% PI) [1, 8]: 1.41 (0.92, 1.90)
- σprop, Bootstrap Median (95% PI) [1, 8]: 20 (16, 24) %
- Tmax, median (min, max) estimated per patient ([1]; both, human, in vivo): 1.7 h
- Tmax ([1]; both, human, in vivo, Tmax, median (min, max) estimated per patient): 1.75 h
- clearance ([1]; both, human, plasma, oral): 70 mL/min
- CL variability explained by age ([1]; covariate age): 21%
- increase in CL with coadministration of dabrafenib ([1]; covariate analysis, RSE = 46%, effect excluded after sensitivity analysis (adherence confounding)): 40%
- CL variability explained by FFM ([1]; covariate fat-free mass): 66%
- IIVCL (inter-individual variability of CL, CV), Final Model Estimation (RSE %) ([1]; final model): 23 (14) %
- Q (typical intercompartmental clearance), Final Model Estimation (RSE %) ([1]; final model): 29.4 (30) L·h^−1
- V2 (typical volume of distribution, central), Final Model Estimation (RSE %) ([1]; final model): 108 L and 108 (16) L
- V3 (peripheral volume of distribution), Final Model Estimation (RSE %) ([1]; final model): 286 L and 286 (25) L
- θCL (typical clearance), Final Model Estimation (RSE %) ([1]; final model): 3.96 L·h^−1 and 3.96 (6) L·h^−1
- σprop (proportional residual error, CV), Final Model Estimation (RSE %) ([1]; final model): 20 (10) %
- θAGE (effect of age on CL), Final Model Estimation (RSE %) ([1]; final model, AGEmedian = 63 years): −0.69 (32)
- θFFM (effect of fat-free mass on CL), Final Model Estimation (RSE %) ([1]; final model, FFMmedian = 46.35 kg): 1.41 (17)
- ka (absorption rate constant) [2]: 0.913 h^−1 and 0.913 fixed h^−1
- CL in a previous popPK model (first value named) [3]: 5.83 L/h
- CL in a previous popPK model (second value named) [3]: 4.91 L/h
- peripheral volume of distribution ([3]; ref Balakirouchenane et al. [38]): 417 L
- central volume of distribution ([3]; ref Ouellet et al. [37]): 214 L
- peripheral volume of distribution ([3]; ref Ouellet et al. [37]): 568 L
- Steady-state at day ([4]; Figure 1): 15 days
- excreted in the urine [4]: 19%
- terminal half-life [4]: around 127 h
- time at which maximum concentration is reached after administration [4]: approximately 1.5 h
- excreted in the urine ([4]; listed as Trametinib): ≤ 19%
- bioavailability ([4]; oral): 72%
- substrate of cytochrome P (CYP) enzymes [5]: not a substrate
- lipophilicity (in words) [6]: lipophilic
- Most frequent adverse events: Abdominal pain [7]: 17%
- Most frequent adverse events: Arthralgia [7]: 26%
- Most frequent adverse events: Asthenia [7]: 15%
- Most frequent adverse events: Chills [7]: 33%
- Most frequent adverse events: Constipation [7]: 13%
- Most frequent adverse events: Coughing [7]: 20%
- Most frequent adverse events: Cutaneous dryness [7]: 13%
- Most frequent adverse events: Diarrhea [7]: 32%
- Most frequent adverse events: Erythema [7]: 10%
- Most frequent adverse events: Fatigue [7]: 38%
- Most frequent adverse events: Flu infection [7]: 11%
- Most frequent adverse events: Haemorrhages [7]: 19%
- Most frequent adverse events: Headache [7]: 33%
- Most frequent adverse events: Hypertension [7]: 19%
- Most frequent adverse events: Increase in ALAT [7]: 14%
- Most frequent adverse events: Increase in ASAT [7]: 13%
- Most frequent adverse events: Loss of appetite [7]: 14%
- Most frequent adverse events: Muscle cramps [7]: 10%
- Most frequent adverse events: Myalgia [7]: 15%
- Most frequent adverse events: Nausea [7]: 38%
- Most frequent adverse events: Pain in the extremities [7]: 12%
- Most frequent adverse events: Peripheral oedema [7]: 16%
- Most frequent adverse events: Pruritus [7]: 10%
- Most frequent adverse events: Pyrexia [7]: 58%
- Most frequent adverse events: Rash [7]: 24%
- Most frequent adverse events: Rhinopharyngitis [7]: 11%
- Most frequent adverse events: Vomiting [7]: 29%
- Most frequent adverse events: dizziness [7]: 11%
